Test results reported in ChEMBL document CHEMBL6177990, “Fluorescence-Coupled Ubiquitination Assay as a High-Throughput Screening Strategy for Novel Cereblon Degraders” (J Med Chem, 2025).
Values belong to the molecule of their own block, whether it stands above or below them. Calls of active or inactive are those of the source. The rule behind the calls is not given here.

Legend:
[1] = PROTAC activity at human BRD4 BD1/CRBN assessed as ubiquitination level by measuring unmodified protein by […]
[2] = target: T1, Protein cereblon/Nucleosome-remodeling factor subunit BPTF (Homo sapiens, UniProt Q12830+Q96SW2); assay: PROTAC activity at human BPTF/CRBN assessed as ubiquitination level by measuring unmodified protein by fluorescence-coupled CRBN-based ubiquitination assay
Target sequence in this assay (Q96SW2 whole entry, looked up, other chains not shown): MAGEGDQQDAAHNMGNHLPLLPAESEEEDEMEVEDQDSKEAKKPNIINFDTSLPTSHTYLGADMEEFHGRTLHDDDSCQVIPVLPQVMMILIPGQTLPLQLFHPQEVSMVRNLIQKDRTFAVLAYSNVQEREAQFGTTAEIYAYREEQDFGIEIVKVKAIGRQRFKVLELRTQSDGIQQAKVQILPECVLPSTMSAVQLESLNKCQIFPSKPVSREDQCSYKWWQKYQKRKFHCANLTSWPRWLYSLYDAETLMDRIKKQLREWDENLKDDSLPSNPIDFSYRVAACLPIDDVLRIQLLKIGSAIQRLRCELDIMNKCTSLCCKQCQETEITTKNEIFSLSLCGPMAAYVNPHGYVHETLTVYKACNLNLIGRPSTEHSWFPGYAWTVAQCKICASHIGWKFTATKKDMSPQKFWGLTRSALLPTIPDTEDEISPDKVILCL

[3] = target: T2, Protein cereblon/Chromatin remodeling regulator CECR2 (Homo sapiens) (UniProt Q9BXF3+Q96SW2); assay: PROTAC activity at human CECR2/CRBN assessed as degradation of protein by measuring unmodified protein at 20 uM by fluorescence-coupled CRBN-based ubiquitination assay
[4] = target: T2, Protein cereblon/Chromatin remodeling regulator CECR2 (Homo sapiens); assay: PROTAC activity at human CECR2/CRBN assessed as degradation of protein by measuring unmodified protein at 10 uM by fluorescence-coupled CRBN-based ubiquitination assay
[5] = target: T1, Protein cereblon/Nucleosome-remodeling factor subunit BPTF; assay: PROTAC activity at human BPTF/CRBN assessed as degradation of protein by measuring unmodified protein by fluorescence-coupled CRBN-based ubiquitination assay
Target sequence in this assay (Q96SW2 whole entry, other chains not shown): as the sequence (Q96SW2 whole entry, looked up, other chains not shown) above

[6] = Inhibition of human BPTF BRD by HTRF assay
[7] = Binding affinity to human BPTF BRD assessed as dissociation constant
[8] = target: T1, Protein cereblon/Nucleosome-remodeling factor subunit BPTF; assay: PROTAC activity at human BPTF/CRBN in human MV4-11 cells assessed as degradation of protein measured after 24 hrs by immunoblotting analysis; type: cell-based
Target sequence in this assay (Q96SW2 whole entry, looked up, other chains not shown): as above

[9] = target: T2, Protein cereblon/Chromatin remodeling regulator CECR2 (Homo sapiens); assay: PROTAC activity at human CECR2/CRBN in human MV4-11 cells assessed as degradation of protein at 20 uM measured after 24 hrs by immunoblotting analysis; type: cell-based
[10] = target: Protein cereblon/Bromodomain-containing protein 9 (Homo sapiens) (UniProt Q9H8M2+Q96SW2); assay: PROTAC activity at human BRD9/CRBN in human MV4-11 cells assessed as degradation of protein at 20 uM measured after 24 hrs by immunoblotting analysis; type: cell-based
[11] = target: Protein cereblon/Histone acetyltransferase KAT2B (Homo sapiens) (UniProt Q92831+Q96SW2); assay: PROTAC activity at human PCAF/CRBN in human MV4-11 cells assessed as degradation of protein at 20 uM measured after 24 hrs by immunoblotting analysis; type: cell-based
MV4-11 = assay: Antiproliferative activity against human MV4-11 cells assessed as cell viability measured after 6 days by CellTiter-Glo kit; type: functional, cell-based; conditions: MV4-11, 144 h
[12] = target: T1, Protein cereblon/Nucleosome-remodeling factor subunit BPTF; assay: PROTAC activity at human BPTF/CRBN in human MV4-11 cells assessed as degradation of protein pretreated with MLN4924 for 12hrs followed by measured after 24 hrs of compound treatment by immunoblotting analysis; type: cell-based
Target sequence in this assay (Q96SW2 whole entry, looked up, other chains not shown): as above

[13] = target: T1, Protein cereblon/Nucleosome-remodeling factor subunit BPTF; assay: PROTAC activity at human BPTF/CRBN in human MV4-11 cells assessed as degradation of protein measured after 24 hrs in presence of pomalidomide by immunoblotting analysis; type: cell-based
Target sequence in this assay (Q96SW2 whole entry, looked up, other chains not shown): as above

[14] = target: T1, Protein cereblon/Nucleosome-remodeling factor subunit BPTF; assay: PROTAC activity at human BPTF/CRBN assessed as ubiquitination level by measuring unmodified protein in presence of pomalidomide by fluorescence-coupled CRBN-based ubiquitination assay
Target sequence in this assay (Q96SW2 whole entry, looked up, other chains not shown): as above

[15] = target: T1, Protein cereblon/Nucleosome-remodeling factor subunit BPTF; assay: PROTAC activity at human BPTF/CRBN in human MV4-11 cells assessed as degradation of protein at 5 uM measured after 24 hrs by immunoblotting analysis; type: cell-based
Target sequence in this assay (Q96SW2 whole entry, looked up, other chains not shown): as above

T2 sequence (Q96SW2 whole entry, looked up): as the sequence (Q96SW2 whole entry, looked up, other chains not shown) above
T2 sequence (Q9BXF3 whole entry, looked up): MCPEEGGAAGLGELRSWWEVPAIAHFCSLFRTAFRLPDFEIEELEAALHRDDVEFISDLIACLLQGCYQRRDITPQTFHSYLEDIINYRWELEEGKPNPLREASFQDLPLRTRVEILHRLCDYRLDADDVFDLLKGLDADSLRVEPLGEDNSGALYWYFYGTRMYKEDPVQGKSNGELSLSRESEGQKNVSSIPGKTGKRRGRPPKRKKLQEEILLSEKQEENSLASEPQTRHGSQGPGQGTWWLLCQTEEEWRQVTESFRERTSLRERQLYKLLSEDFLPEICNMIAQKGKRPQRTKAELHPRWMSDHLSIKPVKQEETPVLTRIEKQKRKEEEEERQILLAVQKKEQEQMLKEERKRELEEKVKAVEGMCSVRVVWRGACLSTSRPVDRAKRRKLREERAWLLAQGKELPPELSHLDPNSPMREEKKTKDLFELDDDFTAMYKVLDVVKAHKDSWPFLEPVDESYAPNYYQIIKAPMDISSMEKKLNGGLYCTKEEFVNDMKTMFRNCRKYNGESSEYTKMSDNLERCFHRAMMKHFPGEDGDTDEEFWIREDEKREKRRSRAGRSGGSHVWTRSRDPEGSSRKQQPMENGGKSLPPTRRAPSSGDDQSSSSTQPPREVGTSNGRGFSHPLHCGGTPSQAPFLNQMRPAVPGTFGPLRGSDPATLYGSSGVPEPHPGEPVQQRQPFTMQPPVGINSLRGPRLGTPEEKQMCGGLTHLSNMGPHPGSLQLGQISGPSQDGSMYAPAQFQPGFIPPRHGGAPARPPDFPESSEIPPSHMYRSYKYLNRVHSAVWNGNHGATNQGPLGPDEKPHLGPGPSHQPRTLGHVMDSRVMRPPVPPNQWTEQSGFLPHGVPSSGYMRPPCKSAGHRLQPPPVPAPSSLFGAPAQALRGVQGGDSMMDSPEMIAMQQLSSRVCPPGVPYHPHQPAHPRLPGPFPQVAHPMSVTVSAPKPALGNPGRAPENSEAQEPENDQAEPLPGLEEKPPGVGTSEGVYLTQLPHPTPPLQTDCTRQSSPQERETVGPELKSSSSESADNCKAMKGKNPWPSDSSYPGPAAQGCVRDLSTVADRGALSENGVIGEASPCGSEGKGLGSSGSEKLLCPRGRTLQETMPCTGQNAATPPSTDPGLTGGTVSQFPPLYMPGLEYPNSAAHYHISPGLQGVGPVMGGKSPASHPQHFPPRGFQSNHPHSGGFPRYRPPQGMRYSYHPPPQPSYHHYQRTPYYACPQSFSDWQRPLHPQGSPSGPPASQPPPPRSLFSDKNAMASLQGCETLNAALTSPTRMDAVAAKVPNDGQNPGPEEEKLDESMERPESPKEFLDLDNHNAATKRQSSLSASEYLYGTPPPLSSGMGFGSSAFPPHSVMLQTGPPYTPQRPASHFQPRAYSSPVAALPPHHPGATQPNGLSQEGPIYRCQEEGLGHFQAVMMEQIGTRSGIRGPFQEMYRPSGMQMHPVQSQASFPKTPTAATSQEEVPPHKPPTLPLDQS
Chain of Protein cereblon/Bromodomain-containing protein 9 (Homo sapiens) (Q96SW2 whole entry, looked up): as the sequence (Q96SW2 whole entry, looked up, other chains not shown) above
Chain of Protein cereblon/Bromodomain-containing protein 9 (Homo sapiens) (Q9H8M2 whole entry, looked up): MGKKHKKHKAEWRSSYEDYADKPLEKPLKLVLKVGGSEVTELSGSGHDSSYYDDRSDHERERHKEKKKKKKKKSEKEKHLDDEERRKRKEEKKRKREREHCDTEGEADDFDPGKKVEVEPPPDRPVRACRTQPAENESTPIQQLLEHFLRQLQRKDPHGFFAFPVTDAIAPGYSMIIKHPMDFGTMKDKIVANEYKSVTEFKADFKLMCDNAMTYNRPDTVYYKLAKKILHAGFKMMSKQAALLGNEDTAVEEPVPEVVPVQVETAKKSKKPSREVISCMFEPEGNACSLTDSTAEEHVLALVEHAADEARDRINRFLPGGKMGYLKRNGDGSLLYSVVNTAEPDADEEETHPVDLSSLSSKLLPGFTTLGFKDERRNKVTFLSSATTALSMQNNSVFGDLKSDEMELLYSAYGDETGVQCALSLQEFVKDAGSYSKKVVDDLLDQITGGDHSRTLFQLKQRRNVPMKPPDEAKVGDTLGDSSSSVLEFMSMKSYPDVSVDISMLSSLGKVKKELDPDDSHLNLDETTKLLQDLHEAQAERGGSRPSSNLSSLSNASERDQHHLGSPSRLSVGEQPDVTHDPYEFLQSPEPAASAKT
Chain of Protein cereblon/Histone acetyltransferase KAT2B (Homo sapiens) (Q92831 whole entry, looked up): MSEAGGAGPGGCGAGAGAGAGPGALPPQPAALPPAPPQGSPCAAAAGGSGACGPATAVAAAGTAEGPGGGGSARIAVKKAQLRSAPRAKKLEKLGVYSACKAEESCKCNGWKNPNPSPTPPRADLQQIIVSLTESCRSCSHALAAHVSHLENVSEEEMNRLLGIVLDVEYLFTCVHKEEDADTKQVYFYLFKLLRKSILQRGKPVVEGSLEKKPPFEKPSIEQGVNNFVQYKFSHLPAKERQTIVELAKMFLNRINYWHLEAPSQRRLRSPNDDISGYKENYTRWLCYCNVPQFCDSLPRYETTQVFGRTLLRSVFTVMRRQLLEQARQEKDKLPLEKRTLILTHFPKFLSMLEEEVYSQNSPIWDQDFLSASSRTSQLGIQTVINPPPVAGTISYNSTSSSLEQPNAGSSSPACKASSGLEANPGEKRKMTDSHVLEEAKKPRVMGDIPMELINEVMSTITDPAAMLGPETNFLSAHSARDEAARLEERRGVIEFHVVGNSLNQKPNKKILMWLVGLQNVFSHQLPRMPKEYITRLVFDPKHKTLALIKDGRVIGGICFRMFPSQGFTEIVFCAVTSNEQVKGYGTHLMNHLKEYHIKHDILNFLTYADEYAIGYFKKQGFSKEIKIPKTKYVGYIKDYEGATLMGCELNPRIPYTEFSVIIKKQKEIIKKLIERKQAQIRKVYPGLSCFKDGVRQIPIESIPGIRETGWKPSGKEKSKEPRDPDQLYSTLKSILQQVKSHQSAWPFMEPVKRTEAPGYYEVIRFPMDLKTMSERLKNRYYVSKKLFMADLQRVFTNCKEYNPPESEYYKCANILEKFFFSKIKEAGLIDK
Chain of Protein cereblon/Histone acetyltransferase KAT2B (Homo sapiens) (Q96SW2 whole entry, looked up): as the sequence (Q96SW2 whole entry, looked up, other chains not shown) above

SMILES: COC(=O)C[C@@H]1N=C(c2ccc(Cl)cc2)c2c(sc(C(=O)NCCCCCCCCNC(=O)COc3cccc4c3C(=O)N(C3CCC(=O)NC3=O)C4=O)c2C)-n2c(C)nnc21 (stereo partly specified)
- IC50 [1]: 1150 nM

SMILES: Cc1sc2c(c1C)C(c1ccc(Cl)cc1)=N[C@@H](CC(=O)Nc1ccc(OCCOCCOCCOCCNc3cccc4c3C(=O)N(C3CCC(=O)NC3=O)C4=O)cc1)c1nnc(C)n1-2 (stereo partly specified)
- IC50 [1]: 1250 nM

SMILES: CCCNc1cc(-c2ccc(OCCCN3CCN(C(=O)COc4cccc5c4C(=O)N(C4CCC(=O)N(C)C4=O)C5=O)CC3)c(C#N)c2)nc(S(C)(=O)=O)n1 (stereo unspecified)
- Activity [2]: inactive
- Activity [15]: inactive

SMILES: Cc1sc2c(c1C)C(c1ccc(Cl)cc1)=N[C@@H](CC(=O)NCCNc1cccc3c1C(=O)N(C1CCC(=O)NC1=O)C3=O)c1nnc(C)n1-2 (stereo partly specified)
- IC50 [1]: 280 nM

The remaining lines, values ahead:

- Activity [2]: Active
- Activity [3]: Active
SMILES: CCCNc1cc(-c2ccc(OCCCN3CCN(C(=O)C4CCN(c5cccc6c5C(=O)N(C5CCC(=O)NC5=O)C6=O)CC4)CC3)c(C#N)c2)nc(S(C)(=O)=O)n1 (stereo unspecified)

- Activity [4]: inactive
SMILES: CCCNc1cc(-c2ccc(OCCCN3CCN(C(=O)CCCCCOc4cccc5c4C(=O)N(C4CCC(=O)NC4=O)C5=O)CC3)c(C#N)c2)nc(S(C)(=O)=O)n1 (stereo unspecified)

- Activity [2]: Active
- DC50 [5]: 44.6 nM
- Activity [3]: inactive
SMILES: CCCNc1cc(-c2ccc(OCCCN3CCN(C(=O)C4CN(c5cccc6c5C(=O)N(C5CCC(=O)NC5=O)C6=O)C4)CC3)c(C#N)c2)nc(S(C)(=O)=O)n1 (stereo unspecified)

- IC50 [1]: 680 nM
- Activity [2]: Active
- DC50 [5]: 35.1 nM
- Activity [3]: inactive
- IC50 [6]: 150 nM
- Kd [7]: 310 nM
- Activity [8]: Dose-dependent-effect
- Activity [9]: inactive
- Activity [10]: inactive
- Activity [11]: inactive
- IC50 (MV4-11): 2710 nM
- Activity [12]: inactive
- Activity [13]: inactive
- Activity [14]: inactive
SMILES: CCCNc1cc(-c2ccc(OCCCN3CCN(C(=O)COc4cccc5c4C(=O)N(C4CCC(=O)NC4=O)C5=O)CC3)c(C#N)c2)nc(S(C)(=O)=O)n1 (stereo unspecified)

- Activity [4]: inactive
SMILES: CCCNc1cc(-c2ccc(OCCCN3CCN(C(=O)CCCCNc4cccc5c4C(=O)N(C4CCC(=O)NC4=O)C5=O)CC3)c(C#N)c2)nc(S(C)(=O)=O)n1 (stereo unspecified)
